Experimental data from paper PMC11288129, “Diversely evolved xibalbin variants from remipede venom inhibit potassium channels and activate PKA-II and Erk1/2 signaling” (BMC Biology, 2024).
Positions of bridges follow the written chain, without caps; N, C: chain ends. No end group written: not given here.

Columns and labels:
Kv1.1 = assay: TEVC inhibition, Kv1.1; format: cell-based, rat; design: Inhibition data, Kv1.1: unit not given here; settings: 1 µM
Excerpt: (§1) For the expression of Kv channels rat Kv1.1 (GenBank accession number: NM_173095 [88, 89]), rKv1.2 (NM_012970 [90, 91]), human Kv1.3 (NM_002232 [92, 93]), rKv1.4 (NM_012971 [94, 95]), rKv1.6 (NM_023954 [96, 97]), hKv2.1 (NM_004975 [98, 99]), hKv3.1 (NM_004976 [100, 101]), rKv4.2 (NM_031739 [102, 103]), hKv10.1 (NM_172362 [104, 105]), hERG1 [Kv11.1, (NM_000238 [106, 107])], and Shaker IR [from Drosophila melanogaster, (NM_167595 [108, 109])], Nav channels [rNav1.2 (NM_012647 [42, 110]), rNav1.4 (NM_013178 [111, 112]), hNav1.5 (NM_198056 [113, 114]), mNav1.6 (NM_001077499 [115, 116]), BgNav [from Blattella germanica, (DQ466887 [117, 118])] and the auxiliary subunits rβ1 (NM_001271045 [119, 120]), hβ1 (NM_001037 [121, 122]), and TipE [from D. melanogaster, (NM_079196 [109, 123])], and Cav channels hCav3.1 [124, 125], hCav3.2 [126, 127], and hCav3.3 [128, 129] in Xenopus oocytes, the linearized plasmids were transcribed using the T7 or SP6 mMESSAGEmMACHINE transcription kit (Ambion, Austin, TX, USA). Mature female animals were purchased from Nasco (Fort Atkinson, USA) and were housed in the Aquatic Facility (KU Leuven) in compliance with the regulations of the European Union (EU) concerning the welfare of laboratory animals as declared in Directive 2010/63/EU. The use of X. laevis oocytes was approved by the Animal Ethics Committee of the KU Leuven with the license number P186/2019. Stage V–VI oocytes were collected from anesthetized female X. laevis frog as previously described, with the frogs anesthetized by placement in 0.1% tricaine solution (amino benzoic acid ethyl ester; Merck, USA). Oocyte microinjection was performed using a microinjector (Drummond Scientifc®, USA), with a programmed cRNA injection volume of 4—50 nL, depending on the channel subtype. The oocytes were incubated in ND96 solution (96 mM NaCl, 2 mM KCl, 1.8 mM CaCl2, 2 mM MgCl2, and 5 mM HEPES, pH 7.4), supplemented with 50 mg/l gentamicin sulfate.
(§2) Electrophysiological measurements were performed at room temperature (18–22 °C) using the two-electrode voltage clamp (TEVC) technique. Data were obtained using a GeneClamp 500 amplifier (Axon Instruments, USA), and Clampex9 software (Axon Instruments), responsible for data acquisition and storage. Glass micropipettes were produced using glass capillaries (borosilicate WPI 1B120-6) and drawn in a WPI (World Precision Instruments, USA) manual stretcher. The bath and perfusion solutions were either the previously described ND96 (Nav and Kv channels) or calcium-free ND96 supplemented with 10 mM BaCl2 (Cav channels).
(§3) Whole-cell currents of oocytes were recorded 1 to 3 days after injection. Current and voltage electrodes were filled with 3 M KCl and their resistance was adjusted from 0.7 to 2.0 MΩ. Currents were sampled at 20 kHz (Nav channels) and 10 kHz (Kv and Cav channels) and filtered using a four-pole Bessel low-pass Bessel filter, at 1 kHz for sodium, and […] for potassium and calcium, except for the hERG ion channel, in which the currents were filtered at 1 kHz. Leak subtraction was performed using a -P/4 protocol. Kv1.x currents were evoked by 500 ms depolarizations to 0 mV followed by a 500-ms pulse to − 50 mV, from a holding potential of − 90 mV. Kv2.1, Kv3.1, and Kv4.2 currents were elicited by 500 ms pulses to + 20 mV from a holding potential of − 90 mV. Current traces of Kv10.1 were elicited by 2 s depolarization to 0 mV, from a holding potential of − 90 mV. Current traces of hERG1 channel were elicited by applying a + 40 mV prepulse for 2 s followed by a step of − 120 mV for 2 s. Sodium current traces were evoked by a 100 ms depolarization to 0 mV, from a holding potential of − 90 mV. The current–voltage (IV) relationships were determined by 100-ms step depolarizations between − 90 and + 40 mV, using 5 mV increments. […]

rKv1.4 = assay: TEVC inhibition, Kv1.4; format: cell-based, rat; design: unit not given here; settings: 1 µM
Excerpt: as §1, §2, §3

hKv3.1 = assay: TEVC inhibition, Kv3.1; format: cell-based, human; design: unit not given here; settings: 1 µM
Excerpt: as §1, §2, §3

hERG1 (Kv11.1) = assay: TEVC inhibition, Kv11.1 (hERG1); format: cell-based; settings: human, Xenopus laevis oocytes expressing hERG1 (Kv11.1), pH 7.4, replicate 1
Excerpt: (§4) For the expression of Kv channels rat Kv1.1 (GenBank accession number: NM_173095 [88, 89]), rKv1.2 (NM_012970 [90, 91]), human Kv1.3 (NM_002232 [92, 93]), rKv1.4 (NM_012971 [94, 95]), rKv1.6 (NM_023954 [96, 97]), hKv2.1 (NM_004975 [98, 99]), hKv3.1 (NM_004976 [100, 101]), rKv4.2 (NM_031739 [102, 103]), hKv10.1 (NM_172362 [104, 105]), hERG1 [Kv11.1, (NM_000238 [106, 107])], and Shaker IR [from Drosophila melanogaster, (NM_167595 [108, 109])], Nav channels [rNav1.2 (NM_012647 [42, 110]), rNav1.4 (NM_013178 [111, 112]), hNav1.5 (NM_198056 [113, 114]), mNav1.6 (NM_001077499 [115, 116]), BgNav [from Blattella germanica, (DQ466887 [117, 118])] and the auxiliary subunits rβ1 (NM_001271045 [119, 120]), hβ1 (NM_001037 [121, 122]), and TipE [from D. melanogaster, (NM_079196 [109, 123])], and Cav channels hCav3.1 [124, 125], hCav3.2 [126, 127], and hCav3.3 [128, 129] in Xenopus oocytes, the linearized plasmids were transcribed using the T7 or SP6 mMESSAGEmMACHINE transcription kit (Ambion, Austin, TX, USA). […]
(§5) Whole-cell currents of oocytes were recorded 1 to 3 days after injection. […] The current–voltage (IV) relationships were determined by 100-ms step depolarizations between − 90 and + 40 mV, using 5 mV increments. […]

rKv1.6 = assay: TEVC inhibition, Kv1.6; format: cell-based, rat; settings: 1 µM
Excerpt: as §1, §2, §3

hKv10.1 = assay: TEVC inhibition, Kv10.1; format: cell-based, human; design: unit not given here; settings: 1 µM
Excerpt: as §1, §2, §3

hNav1.5 = assay: TEVC inhibition, Nav1.5; format: cell-based, human; settings: 1 µM, Xenopus oocytes, ND96, 18–22 °C, mean ± SEM, n ≥ 3
Excerpt: as §4, §5

BgNav = assay: TEVC inhibition, BgNav; format: cell-based, Blattella germanica; design: Inhibition data, BgNav: unit not given here; settings: 1 µM
Excerpt: as §1, §2, §3

rNav1.2 = assay: TEVC current-voltage relationship (Vhalf), Nav1.2; format: cell-based, rat; design: Vhalf, toxin inactivation, Nav1.2 / Vhalf, toxin activation, Nav1.2: unit not given here; settings: for Vhalf, toxin activation, Nav1.2 / Vhalf, toxin inactivation, Nav1.2: 1 µM
Excerpt: as §1, §2, §3

Row | Sequence | inhibition of Kv1.1 (Kv1.1) | Inhibition data, Kv1.1 (Kv1.1; replicate 1) | Inhibition data, Kv1.1 (Kv1.1; replicate 2) | Inhibition data, Kv1.1 (Kv1.1; replicate 3) | Inhibition data, Kv1.1 (Kv1.1; replicate 4) | Inhibition data, Kv1.4 (rKv1.4; replicate 1) | Inhibition data, Kv1.4 (rKv1.4; replicate 2) | Inhibition data, Kv1.4 (rKv1.4; replicate 3) | Inhibition data, Kv1.4 (rKv1.4; replicate 4) | Inhibition data, Kv3.1 (hKv3.1; replicate 1) | Inhibition data, Kv3.1 (hKv3.1; replicate 2) | Inhibition data, Kv3.1 (hKv3.1; replicate 3) | Inhibition data, Kv3.1 (hKv3.1; replicate 4) | inhibition at 1 µM (hERG1 (Kv11.1)) | Inhibition data, Kv1.6 (rKv1.6; replicate 1) | Inhibition data, Kv1.6 (rKv1.6; replicate 2) | Inhibition data, Kv1.6 (rKv1.6; replicate 3) | Inhibition data, Kv10.1 (hKv10.1; replicate 1) | Inhibition data, Kv10.1 (hKv10.1; replicate 2) | Inhibition data, Kv10.1 (hKv10.1; replicate 3) | further results
1 | KRSCIRRFGRCDHRPNDCCYNSSCRCNLWGSNCRCQRMGLFQKWGK (disulfide 4-19, 11-24, 18-35, 26-33) [xib13] | inhibit especially Kv1.1 channels | 83.4 | 86.7 | 85.0 | 83.1 | 0.0 | 0.0 | 0.0 | 0.0 | 0.0 | 0.0 | 0.0 | 0.0 | 0% | 81.2 | 87.8 | 79.9 | 0.0 | 0.0 | 0.0 | Inhibition data, Kv10.1 (hKv10.1; replicate 4): 0.0; inhibition of Nav1.5 (hNav1.5): 28.2 ± 3.4%; inhibition of BgNav (BgNav): targeted; Inhibition data, BgNav (BgNav; replicate 1): 51.7; Inhibition data, BgNav (BgNav; replicate 2): 40.6; Inhibition data, BgNav (BgNav; replicate 3): 30.9; Inhibition data, BgNav (BgNav; replicate 4): 44.2; Vhalf activation shift, Nav1.2 (rNav1.2; 1 µM versus control (ND96)): 1.5 mV; Vhalf, toxin activation, Nav1.2 (rNav1.2; replicate 1): -21.2222; Vhalf, toxin inactivation, Nav1.2 (rNav1.2; replicate 1): -50.4402; Vhalf, toxin activation, Nav1.2 (rNav1.2; replicate 2): -22.3496; Vhalf, toxin inactivation, Nav1.2 (rNav1.2; replicate 2): -54.6262; Vhalf, toxin activation, Nav1.2 (rNav1.2; replicate 3): -23.8888; Vhalf, toxin inactivation, Nav1.2 (rNav1.2; replicate 3): -52.3347; Vhalf, toxin activation, Nav1.2 (rNav1.2; replicate 4): -19.606; Vhalf, toxin inactivation, Nav1.2 (rNav1.2; replicate 4): -52.7049
2 | RLFCIRHHKYCGHRPKRCCSGLFCRCNTFGTNCRCQSKGALGKLI (disulfide 4-19, 11-24, 18-35, 26-33) [xib1] | inhibit especially Kv1.1 channels | 76.3 | 66.2 | 76.2 | 75.3 | 0.0 | 0.0 | 0.0 | 0.0 | 0.0 | 0.0 | 0.0 | 0.0 | 0% | 80.8 | 59.7 | 81.8 | 0.0 | 0.0 | 0.0 | Inhibition data, Kv1.6 (rKv1.6; replicate 4): 80.2; Inhibition data, Kv10.1 (hKv10.1; replicate 4): 0.0; inhibition of Nav1.5 (hNav1.5): 26.1 ± 1.8%; inhibition of BgNav (BgNav): targeted; Inhibition data, BgNav (BgNav; replicate 1): 10.1; Inhibition data, BgNav (BgNav; replicate 2): 7.7; Inhibition data, BgNav (BgNav; replicate 3): 7.6; Inhibition data, BgNav (BgNav; replicate 4): 7.6; Vhalf, toxin activation, Nav1.2 (rNav1.2; replicate 1): -16.7542; Vhalf, toxin inactivation, Nav1.2 (rNav1.2; replicate 1): -48.4729; Vhalf, toxin activation, Nav1.2 (rNav1.2; replicate 2): -15.666; Vhalf, toxin inactivation, Nav1.2 (rNav1.2; replicate 2): -54.2238; Vhalf, toxin activation, Nav1.2 (rNav1.2; replicate 3): -21.743; Vhalf, toxin inactivation, Nav1.2 (rNav1.2; replicate 3): -57.3333; Vhalf, toxin activation, Nav1.2 (rNav1.2; replicate 4): -24.4632; Vhalf, toxin inactivation, Nav1.2 (rNav1.2; replicate 4): -61.3134
